Results published in patent US11345713B2, “Compounds as modulators of TLR2 signaling” (Neuropore Therapies, inc., priority 2018, dated 2022).

What follows are molecules tested against T1, human TLR2 (Pam2CSK4, TLR2/6 agonist) in HEK-Blue hTLR2 cells (Homo sapiens, UniProt O60603) (assay: HEK-Blue hTLR2 antagonism assay (SEAP reporter) with Pam2CSK4 as agonist). Details: 2 h compound pre-incubation, approx. 3×EC50 Pam2CSK4, 18 h, SEAP OD 655 nm, background subtracted.
T1 construct: host or cells: HEK-Blue hTLR2 (HEK-293)
T1 sequence (O60603 19-784 limits assumed): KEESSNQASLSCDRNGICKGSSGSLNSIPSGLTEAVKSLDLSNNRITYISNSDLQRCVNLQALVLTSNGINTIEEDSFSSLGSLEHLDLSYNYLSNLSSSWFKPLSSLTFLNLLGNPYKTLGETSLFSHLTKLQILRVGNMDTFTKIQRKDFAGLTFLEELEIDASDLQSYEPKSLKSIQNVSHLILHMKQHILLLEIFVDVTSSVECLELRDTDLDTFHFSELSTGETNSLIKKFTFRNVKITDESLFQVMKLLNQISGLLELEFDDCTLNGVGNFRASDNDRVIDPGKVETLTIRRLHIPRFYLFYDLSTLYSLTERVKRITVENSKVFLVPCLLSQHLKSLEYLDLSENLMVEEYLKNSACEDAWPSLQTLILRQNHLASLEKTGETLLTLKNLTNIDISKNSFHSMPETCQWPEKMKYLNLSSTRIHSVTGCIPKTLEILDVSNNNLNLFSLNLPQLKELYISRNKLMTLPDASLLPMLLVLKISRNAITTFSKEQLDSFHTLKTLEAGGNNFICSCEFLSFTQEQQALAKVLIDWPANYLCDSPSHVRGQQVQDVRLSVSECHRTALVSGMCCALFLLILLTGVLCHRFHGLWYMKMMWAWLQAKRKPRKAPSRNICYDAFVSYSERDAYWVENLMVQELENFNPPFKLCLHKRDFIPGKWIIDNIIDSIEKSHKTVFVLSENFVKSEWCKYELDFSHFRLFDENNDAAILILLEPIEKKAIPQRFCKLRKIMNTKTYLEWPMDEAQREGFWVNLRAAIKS
Type: cell-based
Outline: (§1)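 HEK-Blue hTLR2 cells (HEK-293 with human TLR2 and NFκB-driven SEAP), 1×10^5/well, pretreated with compound (1% DMSO final) for 2 h, then stimulated with about 3×EC50 Pam3CSK4 or Pam2CSK4 (EC50 set each run) for 18 h at 37 °C. Supernatant SEAP read by Quanti-Blue at OD 655 nm after 15 min; background-subtracted IC50.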

Row | IC50 | Compound
1 | 1.7 µM | COc1cc(/C=C/c2ccc(OCC3CC3)cc2)cc(C=O)c1O [compound 65, (E)-5-(4-(cyclopropylmethoxy)styryl)-2-hydroxy-3-methoxybenzaldehyde]
2 | 0.5 µM | O=Cc1cc(/C=C/c2ccc(N3CCCC3)cc2)cc(F)c1O [Example 49a, (E)-3-fluoro-2-hydroxy-5-(4-(pyrrolidin-1-yl)styryl)benzaldehyde]
3 | 14.7 µM | COc1cc(-c2cc3c(s2)CCN(C(C)=O)C3)cc(C=O)c1O [compound 15, 5-(5-acetyl-4,5,6,7-tetrahydrothieno[3,2-c]pyridin-2-yl)-2-hydroxy-3-methoxybenzaldehyde]
4 | 1.5 µM | CCN(CC)c1ccc(/C=C/c2cc(C=O)c(O)c(OC)c2)cc1 [compound 63, (E)-5-(4-(diethylamino)styryl)-2-hydroxy-3-methoxybenzaldehyde]

These molecules were tested against T2, human TLR2 (Pam3CSK4, TLR1/2 agonist) in HEK-Blue hTLR2 cells (Homo sapiens, UniProt O60603) (assay: HEK-Blue hTLR2 antagonism assay (SEAP reporter) with Pam3CSK4 as agonist). Details: 2 h compound pre-incubation, approx. 3×EC50 Pam3CSK4, 18 h, SEAP OD 655 nm, background subtracted.
T2 construct: host or cells: HEK-Blue hTLR2 (HEK-293)
T2 sequence (O60603 19-784 limits assumed): as above
Type: cell-based
Outline: as §1

Row | IC50 | Compound
5 | 0.5 µM | COc1cc(/C=C/c2ccc(OCC3CC3)cc2)cc(C=O)c1O [compound 65, (E)-5-(4-(cyclopropylmethoxy)styryl)-2-hydroxy-3-methoxybenzaldehyde]
6 | 0.6 µM | O=Cc1cc(/C=C/c2ccc(N3CCCC3)cc2)cc(F)c1O [Example 49a, (E)-3-fluoro-2-hydroxy-5-(4-(pyrrolidin-1-yl)styryl)benzaldehyde]
7 | 12.6 µM | COc1cc(-c2cc3c(s2)CCN(C(C)=O)C3)cc(C=O)c1O [compound 15, 5-(5-acetyl-4,5,6,7-tetrahydrothieno[3,2-c]pyridin-2-yl)-2-hydroxy-3-methoxybenzaldehyde]
8 | 0.6 µM | CCN(CC)c1ccc(/C=C/c2cc(C=O)c(O)c(OC)c2)cc1 [compound 63, (E)-5-(4-(diethylamino)styryl)-2-hydroxy-3-methoxybenzaldehyde]
